The text below walks through data of patent US20250120932A1, “PHARMACEUTICAL COMPOSITION” (NEUROPRO THERAPEUTICS, INC., priority 2021, published 2025).

One may read the Papp A→B as how fast a substance crosses the layer from the apical side. A low value points to slow passage. By logP is commonly meant a log measure of how a compound divides between an organic and an aqueous phase. Read a high logP as higher lipophilicity. For orientation: efflux ratio means a quotient of directional permeabilities that is used to spot active efflux. One may read the Papp B→A as how fast a substance crosses the layer from the basolateral side.

One data set is described as follows: in vitro. Conditions: human; for recovery at 2 h: Caco-2, pH 7.4, Mean % Solution Recovery A to B. As to the method:
(§1) Caco-2 cells purchased from ATCC were seeded onto […] (PET) in 96-well Corning Insert plates at 1×10^5 cells/cm^2, and refreshed medium every 4˜5 days until to the 21st to 28th day for confluent cell monolayer formation.
(§2) The transport buffer in the study was HBSS with 10.0 mM HEPES at pH 7.40±0.05. Test compound was tested at 2.00 μM bi-directionally in duplicate. Digoxin was tested at 10.0 μM bi-directionally in duplicate, while nadolol and metoprolol were tested at 2.00 μM in A to B direction in duplicate. Final DMSO concentration was adjusted to less than 1%. The plate was incubated for 2 hours in CO2 incubator at 37±1° C., with 5% CO2 at saturated humidity without shaking. And all samples after mixed with acetonitrile containing internal standard were centrifuged at 3200×g for 10 min. For nadolol and metoprolol, 200 μL supernatant solution was diluted with 600 μL ultra-pure water for LC-MS/MS analysis. For digoxin and test compounds, 200 μL supernatant solution was diluted with 200 μL ultra-pure water for LC-MS/MS analysis. Concentrations of test and control compounds in starting solution, donor solution, and receiver solution were quantified by LC-MS/MS methodologies, using peak area ratio of analyte/internal standard. After transport assay, lucifer yellow rejection assay was applied to determine the Caco-2 cell monolayer integrity.
(§3) The apparent permeability coefficient Papp (cm/s) was calculated using the equation: […]
(§4) Where dCp/dt is the cumulative concentration of compound in the receiver chamber as a function of time (μM/s); Vr is the solution volume in the receiver chamber (0.075 mL on the apical side, 0.25 mL on the basolateral side); A is the surface area for the transport, i.e. 0.0804 cm^2 for the area of the monolayer; Co is the initial concentration in the donor chamber (μM). The efflux ratio was calculated using the equation: […]
(§5) Percent recovery was calculated using the equation: […]
(§6) Where Vd is the volume in the donor chambers (0.075 mL on the apical side, 0.25 mL on the basolateral side); Ca and Cr are the final concentrations of transport compound in donor and receiver chambers, respectively.

The test system of the next data set is Caco-2 cells. The experiment in a line: in vitro. As to the method: as §1, §2, §3, §4, §5, §6
A short description of another data set: physchem. An excerpt:
Crucial to the efficacy of any treatment by a pharmaceutical composition is the overall systemic bioavailability of the pharmaceutical composition used for said treatment. […] LogP is one measure of lipophyilicity, and is the octal:water partition coefficient expressed as a log ratio of molecule in octanol relative to water after mixing.

The nature of data set [1]: Oral delivery of unformulated Bumetanide Dibenzylamide in Beagle dogs, pharmacokinetics and bioavailability. In kind it is in vivo. Conditions: oral non-formulated Bumetanide Dibenzylamide.
Data set [2] can be described thus: Pharmacokinetic study in cynomolgus monkeys after oral (nasogastric) gavage, sublingual and intravenous administration. In kind it is in vivo. The note with it: monkeys, after SL dosing of Bumetanide Dibenzylamide. As for the experimental part: A pharmacokinetic study was done in cynomolgus monkeys following single oral (nasogastric) gavage, sublingual, and intravenous administration. […] Calibration curves, blanks, and analytical QCs were prepared in monkey plasma (K2EDTA). The extracts were evaporated to dryness, reconstituted, and then analyzed by LC-MS/MS. The calibration range was 0.250-250 ng/mL for both analytes.
If the criteria for either the calibration curve or the analytical QCs were not met, the analytical run was rejected. […] No deviations were found during the bioanalytical phase of the study conducted by Origin. Calibration curves were derived from the individual analyte to internal standard peak area ratios using the least squared regression of the ratio versus the nominal concentration of the calibration standard, prepared in duplicate. The regression was then used to back-calculate the concentration of each calibration standard, QC sample and study sample. […] Analyst® Software Version 1.6.3 (Applied Biosystems-MDS Sciex), operated with Windows® (Microsoft), was used for instrument control, data acquisition, and peak integrations. Peak area ratios, standard curve regressions, and sample concentration/accuracy values were calculated with Analyst® Software Version 1.6.3. Other results (e.g., mean statistics) were calculated with Excel® (Microsoft).
There was no apparent sex difference for the second formulation. […] A fourth formulation comprising the composition B listed in Table 54 was also administered in monheys.

Data set [3] can be described thus: Oral SEDDS-formulated versus unformulated Bumetanide amides in rats, blood concentration. Format: in vivo. Conditions: male rats. As to the method: SEDDS-formulated and unformulated Bumetanide Morpholinoamide and Bumetanide Diethylamide were orally administered to rats. The experiment was conducted as described previously in regards to Bumetanide Dibenzylamide. Three male and three female rats at each time point for each of the SEDDS and non-SEDDS treatments were used. […] As this appeared to be experimental error, all female rats were removed from the data.

[4] abbreviates: Caco-2, pH 7.4, Mean Papp (10^−6 cm/s) A to B.
Where [5] appears, read: human, Caco-2, 2 h, 10 μM, pH 7.4.

`COCCc1ccc(OCC(O)CNC(C)C)cc1` (stereo not drawn) [metoprolol, reference compound]: the recovery at 2 h in “in vitro” was found to be 94.7%. The apparent permeability from apical to basolateral (Papp A→B) at 2 h in the data set “in vitro” (setting [4]) is 19.2 ×10⁻⁶ cm/s; in the data set “in vitro” (Caco-2, pH 7.4, Rank Papp), > 2.5 ×10⁻⁶ cm/s. The “Mean % Solution Recovery A to B” value in the data set on Caco-2 cells (human, Caco-2, 2 h, pH 7.4) was 95.7%.
For `CCCCNc1cc(C(=O)O)cc(S(N)(=O)=O)c1Oc1ccccc1` [Bumetanide, reference compound], the log partition coefficient (logP) in the data set “physchem” is ~2.61. In addition, the Bumetanide levels result in data set [1] was “not measureable”. The “plasma concentrations of Bumetanide” value in data set [2] was “no measurable concentrations”.
As for `C[C@H]1O[C@@H](O[C@H]2[C@@H](O)C[C@H](O[C@H]3[C@@H](O)C[C@H](O[C@H]4CC[C@@]5(C)[C@H](CC[C@@H]6[C@@H]5C[C@@H](O)[C@]5(C)[C@@H](C7=CC(=O)OC7)CC[C@]65O)C4)O[C@@H]3C)O[C@@H]2C)C[C@H](O)[C@@H]1O` [Digoxin, reference compound], the efflux ratio at 2 h, 10 μM in “in vitro” (Caco-2, pH 7.4, Efflux Ratio) stood at 586. The same compound displayed a recovery at 2 h in “in vitro” of 94.7%. The compound also returned a recovery at 2 h, 10 μM in the data set “in vitro” (Caco-2, pH 7.4, Mean % Solution Recovery B to A) of 108%. For the same compound, the apical-to-basolateral permeability (Papp A→B) at 2 h in “in vitro” (setting [4]) was 0.0223 ×10⁻⁶ cm/s; in the data set “in vitro” (Caco-2, pH 7.4, Rank Papp), < 0.5 ×10⁻⁶ cm/s. The Papp B→A at 2 h, 10 μM in “in vitro” (Caco-2, pH 7.4, Mean Papp (10^−6 cm/s) B to A) amounted to 13.1 ×10⁻⁶ cm/s. The “Rank Efflux Transporter Substrate” value with Caco-2 cells (Caco-2) is “Likely”. Besides, the “Efflux Ratio” value in the data set with Caco-2 cells (setting [5]) was 800. Moreover, the “Mean % Solution Recovery B to A” value with Caco-2 cells (setting [5]) is 103.4%. Also, the “Mean % Solution Recovery A to B” value in the data set on Caco-2 cells (human, Caco-2, 2 h, pH 7.4) turned out to be 97.4%.
For `CCCCNc1cc(C(=O)N(Cc2ccccc2)Cc2ccccc2)cc(S(N)(=O)=O)c1Oc1ccccc1` [Bumetanide Dibenzylamide unformulated], in the data set with Caco-2 cells (Caco-2), the “Efflux Ratio” value is recorded as >0.825, the “Mean % Solution Recovery A to B” value is listed as <4.9%, the “Mean % Solution Recovery B to A” value came out at 25.4% and the “Rank Efflux Transporter Substrate” value was “Poor or non-”. In the data set with Caco-2 cells (Caco-2, pH 7.4), the “Mean Papp (10^−6 cm/s) A to B” value was <0.480 10^−6 cm/s and the “Mean Papp (10^−6 cm/s) B to A” value is 0.396 10^−6 cm/s.
As to `CCCCNc1cc(C(=O)N2CCOCC2)cc(S(N)(=O)=O)c1Oc1ccccc1` [Bumetanide Morpholinoamide], the “blood concentration by 24 hrs” value in data set [3] is on record as “no detectable concentration”.
Consider `CCCCNc1cc(C(=O)N(CC)CC)cc(S(N)(=O)=O)c1Oc1ccccc1` [Bumetanide Diethylamide], for which the log partition coefficient (logP) in the data set “physchem” (octanol:water partition coefficient) was found to be 3.11. Further, the “Mean % Solution Recovery A to B” value with Caco-2 cells (Caco-2, A to B, second Table 73 (diethylamide run)) was 77.4%. The “Mean Papp (10^−6 cm/s) A to B” value in the data set with Caco-2 cells (Caco-2, A to B, test compound 2.00 μM (digoxin 10.0 μM), 2 hours, HBSS pH 7.40, second Table 73 (diethylamide run)) was 1.33 10^−6 cm/s. In addition, the “Efflux Ratio” value in the data set with Caco-2 cells (Caco-2, B to A / A to B, second Table 73 (diethylamide run)) came out at 31.6. The “Mean % Solution Recovery B to A” value with Caco-2 cells (Caco-2, B to A, second Table 73 (diethylamide run)) was 88.5%. The “Mean Papp (10^−6 cm/s) B to A” value in the data set with Caco-2 cells (Caco-2, B to A, test compound 2.00 μM (digoxin 10.0 μM), 2 hours, HBSS pH 7.40, second Table 73 (diethylamide run)) is reported as 42.0 10^−6 cm/s. Also, in the data set with Caco-2 cells (Caco-2 efflux ratio rank, second Table 73 (diethylamide run)), the “Rank Efflux Transporter Substrate” value is recorded as “Likely”. Moreover, the “Rank Papp” value with Caco-2 cells (Caco-2 permeability rank, second Table 73 (diethylamide run)) is reported as “Moderate (Moderate permeability: 0.500<Papp<2.50 (×10^−6 cm/s))”.
Turning to `CCCCNc1cc(C(=O)N2CCOCC2)cc(S(N)(=O)=O)c1Oc1ccccc1` [Bumetanide morpholinoamide unformulated], in the data set on Caco-2 cells (Caco-2), the “Efflux Ratio” value is 43.8, the “Mean % Solution Recovery A to B” value is 87.4%, the “Mean % Solution Recovery B to A” value is given as 99.6% and the “Rank Efflux Transporter Substrate” value is “Likely”. Besides, in the data set with Caco-2 cells (Caco-2, pH 7.4), the “Mean Papp (10^−6 cm/s) A to B” value is 0.709 10^−6 cm/s and the “Mean Papp (10^−6 cm/s) B to A” value is reported as 31.0 10^−6 cm/s.
The compound `CC(C)(C)NCC(O)COc1cccc2c1CC(O)C(O)C2` (stereo not drawn) [nadolol, reference compound] showed a recovery at 2 h in the data set “in vitro” of 97%. Further, the apparent permeability from apical to basolateral (Papp A→B) at 2 h is 0.0983 ×10⁻⁶ cm/s in the data set “in vitro” (setting [4]) and < 0.5 ×10⁻⁶ cm/s in “in vitro” (Caco-2, pH 7.4, Rank Papp). Also, the “Mean % Solution Recovery A to B” value in the data set on Caco-2 cells (human, Caco-2, 2 h, pH 7.4) turned out to be 98.5%.
